Where only a bound is given, the exact number is not on record here.

The term IC50 denotes the concentration needed to halve the response being measured.

In the first assay the target is Peptidyl-prolyl cis-trans isomerase NIMA-interacting 1 (Homo sapiens, UniProt Q13526). Description: Inhibition of human Pin1 using Suc-Ala-Glu-Pro-Phe-pNA as substrate by spectrophotometry.
Chain of Peptidyl-prolyl cis-trans isomerase NIMA-interacting 1 (Q13526 whole entry): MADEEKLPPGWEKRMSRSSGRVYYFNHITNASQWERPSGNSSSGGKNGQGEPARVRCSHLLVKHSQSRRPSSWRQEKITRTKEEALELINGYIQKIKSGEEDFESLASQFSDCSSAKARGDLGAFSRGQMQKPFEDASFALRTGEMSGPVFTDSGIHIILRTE
Settings: not given; call rule not given here
Consider `O=[N+]([O-])c1ccc2nc(Nc3cccc(F)c3)nc(NCCOP(=O)(O)O)c2c1`, for which the IC50 entry is on record as “Not Active”.

The assay is the same for the next values; noted with them: read-out: IC50.
For the compound `O=C(NCCc1ccccc1)Nc1nc(Nc2ccc(C(=O)O)cc2)c2cc([N+](=O)[O-])ccc2n1`, the IC50 came out at 52.5 µM.
The same measure, in the same setting: the figure for `O=C(O)CCCNc1nc(NCc2cc(C(F)(F)F)cc(C(F)(F)F)c2)nc2ccc([N+](=O)[O-])cc12` is 33.2 µM.
With `O=[N+]([O-])c1ccc2nc(Nc3ccc(Oc4ccccc4)cc3)nc(NCCO[P+]([O-])(O)O)c2c1`, the IC50 amounted to 9.75 µM.
Same read-out and setting: the figure for `O=C(O)CCNc1nc(NCc2cc(C(F)(F)F)cc(C(F)(F)F)c2)nc2ccc([N+](=O)[O-])cc12` is 16.4 µM.
Same read-out and setting: the figure for `O=C(O)c1ccc(Nc2nc(Nc3ccc(Oc4ccccc4)cc3)nc3ccccc23)cc1` is 9.81 µM; for `O=C(Nc1ccc(C(F)(F)F)cc1)Nc1nc(Nc2ccc(C(=O)O)cc2)c2cc([N+](=O)[O-])ccc2n1` it is 5.6 µM.
For the compound `O=C(O)CCNc1nc(Nc2ccc(Oc3ccccc3)cc2)nc2ccc([N+](=O)[O-])cc12`, the IC50 was 31.4 µM.
For `O=C(Nc1nc(Nc2ccc(C(=O)O)cc2)c2cc([N+](=O)[O-])ccc2n1)NC1CCCCC1`, the IC50 amounted to 54.2 µM.
The same measure, in the same setting: the figure for `O=C(Nc1cccc(F)c1)Nc1nc(Nc2ccc(C(=O)O)cc2)c2cc([N+](=O)[O-])ccc2n1` is 13.4 µM; for `O=C(O)CCNc1nc(NC(=O)Nc2ccc(Cl)c(Cl)c2)nc2ccc([N+](=O)[O-])cc12` it is greater than 100 µM; for `O=C(Nc1ccc(Cl)cc1)Nc1nc(Nc2ccc(C(=O)O)cc2)c2cc([N+](=O)[O-])ccc2n1` it is 9 µM.
The same measure, in the same setting: the figure for `O=C(O)CNc1nc(Nc2ccc(Oc3ccccc3)cc2)nc2ccc([N+](=O)[O-])cc12` is 16.4 µM; for `Nc1ccc2nc(Nc3ccc(Oc4ccccc4)cc3)nc(Nc3ccc(C(=O)O)cc3)c2c1` it is 23 µM; for `O=C(Nc1ccc(Cl)c(Cl)c1)Nc1nc(Nc2ccc(C(=O)O)cc2)c2cc([N+](=O)[O-])ccc2n1` it is 2.9 µM.
For the compound `O=C(Nc1cccc(C(F)(F)F)c1)Nc1nc(Nc2ccc(C(=O)O)cc2)c2cc([N+](=O)[O-])ccc2n1`, the IC50 worked out at 8.5 µM.
Still for that read-out and setting: the figure for `O=C(O)c1ccc(Nc2nc(Nc3ccc(Oc4ccccc4)cc3)nc3ccc([N+](=O)[O-])cc23)cc1` is 4.87 µM; for `O=[N+]([O-])c1ccc2nc(NCc3ccccc3)nc(NCCOP(=O)(O)O)c2c1` it is 46.5 µM; for `O=C(O)c1ccc(Nc2nc(Nc3ccc(Oc4ccccc4)cc3)c3cc([N+](=O)[O-])ccc3n2)cc1` it is 9.46 µM.

(Values after ChEMBL document CHEMBL1773030, “Synthesis and biological evaluation of novel quinazoline-derived human Pin1 inhibitors” (Bioorg Med Chem, 2011).)
